Laboratory results as given in the NIST ThermoML archive (doi:10.1021/je0201976).

Conditions: Liquid

FC(C(F)(F)F)C(F)(F)OCC(F)(F)C(F)(F)F (stereo unspecified)
Conditions | Critical density [kg/m3] | Critical pressure [kPa] | Critical temperature [K] | vapor or sublimation pressure [kPa]
– | 567 | – | – | –
312.48 K | – | – | – | 14.7
342.64 K | – | – | – | 54.8
352.72 K | – | – | – | 79.1
362.78 K | – | – | – | 113.1
372.77 K | – | – | – | 157
382.71 K | – | – | – | 211.7
402.89 K | – | – | – | 360.6
412.9 K | – | – | – | 460.7
422.79 K | – | – | – | 575.4
432.96 K | – | – | – | 717.1
443 K | – | – | – | 881.9
453 K | – | – | – | 1067.4
461.47 K | – | – | – | 1255.3
473.07 K | – | – | – | 1548.7
483.09 K | – | – | – | 1842.8
486.67 K | – | – | – | 1954.3
Direct measurement | – | 1950 | – | –
Visual observation in an unstirred cell | – | – | 486.48 | –

FC(F)C(F)(F)COC(F)(F)C(F)F [1,1,2,2-tetrafluoro-3-(1,1,2,2-tetrafluoroethoxy)propane]
Conditions | Critical density [kg/m3] | Critical pressure [kPa] | Critical temperature [K] | vapor or sublimation pressure [kPa]
– | 530 | – | – | –
322.65 K | – | – | – | 20.9
332.65 K | – | – | – | 31.6
342.71 K | – | – | – | 46.8
352.73 K | – | – | – | 67.9
362.77 K | – | – | – | 95.4
372.77 K | – | – | – | 131.3
382.81 K | – | – | – | 177.3
402.88 K | – | – | – | 308.1
412.91 K | – | – | – | 395.4
422.94 K | – | – | – | 500.2
432.96 K | – | – | – | 628.3
442.99 K | – | – | – | 773.9
453.01 K | – | – | – | 946.9
463.24 K | – | – | – | 1151.4
473.06 K | – | – | – | 1378.5
481.12 K | – | – | – | 1591
491.9 K | – | – | – | 1907.6
501.73 K | – | – | – | 2245.2
509.65 K | – | – | – | 2552.5
Direct measurement | – | 2581 | – | –
Visual observation in an unstirred cell | – | – | 510.07 | –

FC(F)C(F)(F)COC(F)(F)C(F)C(F)(F)F (stereo unspecified) [1,1,1,2,3,3-hexafluoro-3-(2,2,3,3-tetrafluoropropoxy)propane]
Conditions | Critical pressure [kPa] | Critical temperature [K] | vapor or sublimation pressure [kPa]
– | 2172 | 516.21 | –
285.28 K | – | – | 6.2
302.65 K | – | – | 12.5
312.63 K | – | – | 19.8
322.62 K | – | – | 30.9
332.69 K | – | – | 45.8
342.69 K | – | – | 62.9
352.75 K | – | – | 88.5
362.72 K | – | – | 129.9
372.8 K | – | – | 175.3
382.83 K | – | – | 229
392.86 K | – | – | 294.8
402.89 K | – | – | 374.7
412.92 K | – | – | 469.1
422.94 K | – | – | 581.8
432.97 K | – | – | 715.5
443 K | – | – | 870.9
453.03 K | – | – | 1049.5
463.06 K | – | – | 1252.9
473.08 K | – | – | 1484.4
481.14 K | – | – | 1745.4
490.97 K | – | – | 2048
499.97 K | – | – | 2137.8
500.79 K | – | – | 2176.3

FCC(F)(F)F [1,1,1,2-tetrafluoroethane]
Conditions | Critical density [kg/m3] | Critical pressure [kPa] | Critical temperature [K]
– | 508 | – | –
Direct measurement | – | 4051 | –
Visual observation in an unstirred cell | – | – | 374.13

FC(F)C(F)(F)OCC(F)(F)C(F)(F)F [1,1,1,2,2-pentafluoro-3-(1,1,2,2-tetrafluoroethoxy)propane]
Conditions | Critical density [kg/m3] | Critical pressure [kPa] | Critical temperature [K] | vapor or sublimation pressure [kPa]
– | 550 | – | – | –
299.64 K | – | – | – | 17.7
332.69 K | – | – | – | 69.8
337.7 K | – | – | – | 84
342.7 K | – | – | – | 100.3
347.73 K | – | – | – | 119.2
352.74 K | – | – | – | 140.6
362.76 K | – | – | – | 192.2
372.78 K | – | – | – | 256.8
382.81 K | – | – | – | 337.6
392.84 K | – | – | – | 436.3
402.86 K | – | – | – | 555.1
412.89 K | – | – | – | 700
422.91 K | – | – | – | 868.6
432.95 K | – | – | – | 1066.1
442.97 K | – | – | – | 1298
447.99 K | – | – | – | 1427.4
453 K | – | – | – | 1567.3
458.02 K | – | – | – | 1718.4
464.03 K | – | – | – | 1914.1
468.05 K | – | – | – | 2055.2
473.08 K | – | – | – | 2246.6
Direct measurement | – | 2244 | – | –
Visual observation in an unstirred cell | – | – | 473.01 | –

COCC(F)(F)C(F)(F)C(F)(F)C(F)F [1,1,2,2,3,3,4,4-octafluoro-5-methoxypentane]
Conditions | Critical pressure [kPa] | Critical temperature [K] | vapor or sublimation pressure [kPa]
– | 2392 | 546.1 | –
301.49 K | – | – | 2.3
312.42 K | – | – | 4
322.54 K | – | – | 6.9
332.62 K | – | – | 11.2
342.67 K | – | – | 18.1
352.72 K | – | – | 29.1
362.75 K | – | – | 48
372.79 K | – | – | 74.3
382.81 K | – | – | 106.8
392.83 K | – | – | 147.1
402.86 K | – | – | 193.8
412.89 K | – | – | 250.4
422.92 K | – | – | 320.1
432.94 K | – | – | 395.7
442.97 K | – | – | 482.8
452.99 K | – | – | 585.8
463 K | – | – | 710.7
473.04 K | – | – | 849.5
483.07 K | – | – | 1006.9
492.89 K | – | – | 1184.9
502.72 K | – | – | 1385.9
512.54 K | – | – | 1615.9
522.34 K | – | – | 1873.5
532.17 K | – | – | 2168.7
541.94 K | – | – | 2471.9
545.63 K | – | – | 2602.5

COC(F)(F)C(F)(F)C(F)F [1,1,2,2,3,3-hexafluoro-1-methoxypropane]
Conditions | Critical pressure [kPa] | Critical temperature [K] | vapor or sublimation pressure [kPa]
– | 3032 | 486.98 | –
301.9 K | – | – | 22.4
312.59 K | – | – | 35
322.63 K | – | – | 52.9
332.69 K | – | – | 77
337.67 K | – | – | 92.1
342.69 K | – | – | 109.2
352.73 K | – | – | 151.1
362.74 K | – | – | 204.9
372.78 K | – | – | 273.4
382.81 K | – | – | 357.4
392.84 K | – | – | 458.8
402.87 K | – | – | 581.1
412.87 K | – | – | 726.2
422.91 K | – | – | 898.8
432.94 K | – | – | 1100.7
442.97 K | – | – | 1333.7
452.99 K | – | – | 1605.1
463.02 K | – | – | 1921.8
473.04 K | – | – | 2276.4
480.12 K | – | – | 2562.9

CC(F)(F)Cl [1-chloro-1,1-difluoroethane]
Conditions | Critical density [kg/m3] | Critical pressure [kPa] | Critical temperature [K]
– | 442 | – | –
Direct measurement | – | 4054 | –
Visual observation in an unstirred cell | – | – | 410.3
